From patent US7740835B2, “Anaerobic bacterium as a drug for cancer gene therapy” (Anaeropharma Science Inc., priority 2000, dated 2010)

System: Lewis lung cancer cells
Assay: Growth of B. longum in tumor tissues by administering lacturose
Type: in vivo, mice
Settings: B. longum 105-A administered; 1 ml of 20 t lacturose solution intraperitoneally for 8 successive days; analysed on the 9th day
Source text: Lacturose (provided by Nikken Chemicals Co., Ltd.) is a synthetic saccharide not occurring in nature, and it is known that lacturose cannot be metabolized by humans, mice and pigs (Biochem. Biophys. Acta, 110, 635 (1965), Pediatrics, 32, 1033 (1963), Gastroenterology, 47, 26 (1964), Die Nahrung, 11, 39 (1967)). On the other hand, B. longum is capable of growing with lacturose as a carbon source.
As a result, the number of B. longum bacteria present of the tumor tissues in the tumor-bearing mouse group given lacturose was 200-times as more as that of the control group not given lacturose.

Structure (SMILES): OC[C@H]1O[C@@H](O[C@@H]2[C@@H](CO)OC(O)(CO)[C@H]2O)[C@H](O)[C@@H](O)[C@H]1O (stereo partly drawn) [lacturose, 4-0-β-D-galactopyranosyl-D-fructofuranose]
- number of B. longum bacteria in tumor tissues of the group given lacturose relative to the control group not given lacturose: 200 times
